Results as given in patent US9884846B2, “Crystalline salts of (S)-6-((1 acetylpiperidin-4-yl)amino)-N-(3-(3,4-dihydroisoquinolin-2(1H)-yl)-2-hydroxypropyl)pyrimidine-4-carboxamide” (GlaxoSmithKline Intellectual Property Development Limited, priority 2014, dated 2018).

Columns and labels:
[1] = Solid-state stability on storage (degradation; physical changes by XRPD); format: physicochemical; conditions: 40° C./75% RH open vessel, and 50° C./Ambient closed vessel
[2] = Photolysis at 1×ICH solid state; format: physicochemical

SMILES | degradation ([1]; after 4 weeks at 25° C./60% RH open vessel) [%] | physical changes by XRPD analysis ([1]; after 6 weeks at 25° C./60% RH open vessel) | degradation by photolysis [2] | form change by XRPD after photolysis [2] | physical changes by XRPD analysis ([1]; after 2 weeks at 25° C./60% RH open vessel)
CC(=O)N1CCC(Nc2cc(C(=O)NC[C@H](O)CN3CCc4ccccc4C3)ncn2)CC1.O=C(O)CCC(=O)O [Compound B, succinate salt of (S)-6-((1-acetylpiperidin-4-yl)amino)-N-(3-(3,4-dihydroisoquinolin-2(1H)-yl)-2-hydroxypropyl)pyrimidine-4-carboxamide] | ≤ 0.4 | No physical changes detected | Approximately 1.4% | no form change observed | 
CC(=O)N1CCC(Nc2cc(C(=O)NC[C@H](O)CN3CCc4ccccc4C3)ncn2)CC1.O=C(O)c1ccccc1 [Compound C, benzoate salt of (S)-6-((1-acetylpiperidin-4-yl)amino)-N-(3-(3,4-dihydroisoquinolin-2(1H)-yl)-2-hydroxypropyl)pyrimidine-4-carboxamide] |  |  | Approximately 1.6% | no form change observed | No physical changes detected
